The values below come from the supplement of paper PMC10307832.

Test in all cases: relative viability (nuclei count vs DMSO), 5 days (fraction); higher = more cells survive
Compound in assay [1]: COCC[n+]1c2c(n(Cc3cnccn3)c1C)C(=O)c1ccccc1C2=O [YM155] + CS(=O)(=O)N1CCN(Cc2cc3nc(-c4cccc5[nH]ncc45)nc(N4CCOCC4)c3s2)CC1 [Pictilisib] (partner 1 µM)
The method in brief: (§1)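 Lung cancer cell lines were pin-tool dosed in 1536-well plates on the day after seeding, with either a lone drug or a fixed anchor-drug dose plus five library-drug doses (not always all listed) in √10 steps. Nuclei were counted on 4× images after 5 days. Relative viability is the ratio of treated-well to vehicle-well nuclei counts, with each value a median of duplicate plates.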

Compound in assay [2]: CC(C)(C)c1cc(NC(=O)Nc2ccc(-c3cn4c(n3)sc3cc(OCCN5CCOCC5)ccc34)cc2)no1 [Quizartinib] + CC(=O)c1c(C)c2cnc(Nc3ccc(N4CCNCC4)cn3)nc2n(C2CCCC2)c1=O [Palbociclib] (partner 0.5 µM)
The procedure, abridged:
as §1

Compound in assay [3]: CC(C)(C)c1cc(NC(=O)Nc2ccc(-c3cn4c(n3)sc3cc(OCCN5CCOCC5)ccc34)cc2)no1 [Quizartinib] + Cc1nc(NC(=O)N2CCC[C@H]2C(N)=O)sc1-c1ccnc(C(C)(C)C(F)(F)F)c1 [Alpelisib] (partner 2 µM)
The method in brief:
as §1

Compound in assay [4]: COCC[n+]1c2c(n(Cc3cnccn3)c1C)C(=O)c1ccccc1C2=O [YM155] + Nc1nc2[nH]cc(CCc3ccc(C(=O)N[C@@H](CCC(=O)O)C(=O)O)cc3)c2c(=O)[nH]1 [Pemetrexed] (partner 0.2 µM)
The procedure, abridged: as §1

As for SW 1573, the relative viability amounted to 0.484 in assay [1] (first compound 0.002 µM); 0.465 in assay [1] (first compound 0.006325 µM); 0.426 in assay [1] (first compound 0.02 µM); 0.0949 in assay [1] (first compound 0.06325 µM); 0.367 in assay [2] (first compound 0.001 µM); 0.367 in assay [2] (first compound 0.003162 µM). Moreover, the relative viability in assay [2] (first compound 0.01 µM) was 0.493; in assay [2] (first compound 0.1 µM), 0.434; in assay [3] (first compound 0.001 µM) it was 0.779; in assay [3] (first compound 0.003162 µM) it was 0.728; in assay [3] (first compound 0.01 µM), 0.836; in assay [3] (first compound 0.03162 µM), 0.686. Further, the relative viability in assay [3] (first compound 0.1 µM) amounted to 0.793; in assay [4] (first compound 0.002 µM), 0.867; in assay [4] (first compound 0.006325 µM), 0.835; in assay [4] (first compound 0.02 µM) it was 0.362; in assay [4] (first compound 0.06325 µM), 0.0865.

With UMC-11, the relative viability in assay [1] (first compound 0.002 µM) turned out to be 0.68; in assay [1] (first compound 0.006325 µM), 0.863; in assay [1] (first compound 0.02 µM), 0.824; in assay [1] (first compound 0.06325 µM) it was 0.787; in assay [2] (first compound 0.003162 µM) it was 0.333; in assay [2] (first compound 0.01 µM) it was 0.339. The relative viability in assay [2] (first compound 0.03162 µM) is 0.321; in assay [2] (first compound 0.1 µM), 0.317; in assay [3] (first compound 0.001 µM) it was 0.924; in assay [3] (first compound 0.003162 µM) it was 0.948; in assay [3] (first compound 0.01 µM), 1.13; in assay [3] (first compound 0.03162 µM), 0.947. The relative viability in assay [3] (first compound 0.1 µM) is 1.1; in assay [4] (first compound 0.002 µM), 0.817; in assay [4] (first compound 0.006325 µM), 0.823; in assay [4] (first compound 0.02 µM), 0.878; in assay [4] (first compound 0.06325 µM) it was 0.802.
